Data set [1] in a line: Additives that stabilize the dye within the particles. The class given is physicochemical. The note with it: antioxidant additive in polymer matrix. The text has this: The loading of dyes within the particles is as high as possible without degrading the cohesion of the polymer. The additives that stabilize the dye within the particles have been studied.
Data set [2] in a line: Retention of Epolight 1117 tetrakis aminium dye in particles during emulsification and evaporation. The data set is classed as physicochemical. The note with it: retention in the particles during emulsion and evaporation process; surfactant as labelled. From the text: In the emulsion method of encapsulation, a surfactant is necessary to help keep the emulsion stable. While Aerosol® TR-70 (sodium bis(tridecyl) sulfosuccinate) could be used as an emulsifier to prepare polymer particles encapsulating Epolight™ 1117 tetrakis aminium dye, TR-70 only provided limited stabilization effects on the tetrakis aminium dye. […] Reducing the amount of SDS in the aqueous phase led to lower Epolight™ 1117 retention and larger particle size (Table 2).

The next data set concerns β-lactamase blend. Put plainly: Reaction of Formula (12) conjugate with β-lactamase (color change in vial). The data set is classed as biochemical. On the procedure:
(§1) In four different vials, compound 4 (1.0 mg in each vial) was dissolved in DMSO (0.3 mL). To one vial, 25 μL of β-lactamase blend was added. To another vial 25 μL PBS was added as the negative control. To the other two vials 25 μL of papain and chymotrypsin were added separately.

In another data set the target is T1, papain (Carica papaya, UniProt P00784).
T1 sequence (P00784 134-345): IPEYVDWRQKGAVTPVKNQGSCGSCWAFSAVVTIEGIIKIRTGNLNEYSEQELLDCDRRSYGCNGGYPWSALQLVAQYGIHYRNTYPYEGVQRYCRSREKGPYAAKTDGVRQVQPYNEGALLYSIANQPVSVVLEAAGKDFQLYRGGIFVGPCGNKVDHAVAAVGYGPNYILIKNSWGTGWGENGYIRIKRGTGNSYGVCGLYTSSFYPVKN
Put plainly: Reaction of Formula (12) conjugate with papain (color change, selectivity control). The data set is classed as biochemical. The note with it: 1.0 mg in 0.3 mL DMSO + 25 μL papain. How it is done: as §1

For another data set, the system named is chymotrypsin. The data set is described as follows: Reaction of Formula (12) conjugate with chymotrypsin (color change, selectivity control). The data set is classed as biochemical. To be noted: 1.0 mg in 0.3 mL DMSO + 25 μL chymotrypsin. How it is done: as §1
The mark [3] stands for this setting: 1.0 mg in 0.3 mL DMSO + 25 μL β-lactamase blend.

The results in this text go back to patent publication US20220229065A1, “SENSORS AND METHODS FOR RAPID MICROBIAL DETECTION” (BAMBU VAULT LLC, priority 2019, published 2022).

Structures are written as SMILES.

Take `Cc1cc(C(C)(C)C)c(O)c(C)c1Cn1c(=O)n(Cc2c(C)cc(C(C)(C)C)c(O)c2C)c(=O)n(Cc2c(C)cc(C(C)(C)C)c(O)c2C)c1=O` [Cyanox® 1790, 1,3,5-tris(4-tert-butyl-3-hydroxy-2,6-dimethylbenzyl)-1,3,5-triazine-2,4,6-(1H,3H,5H)-trione]: the “impact on dye stability within the particles” value in data set [1] is recorded as “positive impact”.

As to `CCCCCCCCCCCCOS(=O)(=O)[O-].[Na+]` [Sodium dodecyl sulfate, sodium dodecyl sulfate], the “% Epolight ™ 1117 Retention” value in data set [2] is 85-90%.

Consider `CCCCCCCCCCCCCOC(=O)CC(C(=O)OCCCCCCCCCCCCC)S(=O)(=O)O.[Na]` (centres unmarked) [TR-70, sodium bis(tridecyl) sulfosuccinate], for which, in data set [2], the “% Epolight ™ 1117 Retention” value came out at 50%.

`COc1ccc(COC(=O)C2=C(CSc3ccc4c(c3)Oc3cc(SCC5=C(C(=O)OCc6ccc(OC)cc6)N6C(=O)[C@H](NC(=O)Cc7ccccc7)[C@@H]6SC5)ccc3C43OC(=O)c4ccccc43)CS[C@H]3[C@@H](NC(=O)Cc4ccccc4)C(=O)N23)cc1` [compound 4]: in the data set on β-lactamase blend (1.0 mg in 0.3 mL DMSO + 25 μL PBS), the “color change with PBS (negative control, no enzyme)” value was “did not change color at all”. For the same molecule, in the data set with β-lactamase blend (setting [3]), the “color change after β-lactamase addition (onset)” value is on record as “started changing color from light yellow to brownish-red within a minute” and the “time to very strong color change after β-lactamase addition” value is listed as “less than 5 minutes”. In addition, the “color change after papain addition” value at papain is “slightly changed color to light brown”. For the same molecule, the “color change after chymotrypsin addition” value in the data set with chymotrypsin is listed as “almost no color change even after 30 minutes”.
